Legend:
Type in all cases: in vivo
Herpes Simplex 1/TUP = test: Survival of mice infected intranasally with lethal dose of Herpes Simplex 1/TUP; details: intranasal, day -7, 0.1 mg/kg single dose; control 20
Procedure: Groups of 30, 40 or 50 female MF-2f SPF mice each having a body weight of 14-16 g, or of 12-14 g in the case of tests with herpes simplex 1 viruses, are infected intranasally, under light anaesthesia using a mixture of equal parts of ether, ethanol and chloroform, with lethal doses (approximately LD80-90; number of plaque-forming units [PFU] see Table 1 ) of the undermentioned virus strains in the form of 0.05 ml in each case of a suspension of the viruses.
At the time indicated below (days) in relation to the day of infection, 10 or 20 of these mice are administered once (single dose) the quantities indicated in Table 1 of the active ingredient, the sodium salt of N-acetylmuramyl-L-alanyl-D-isoglutaminyl-L-alanine-2-(1,2-dipalmitoyl-sn-glycero-3-hydroxyphosphoryloxy)-ethylamide (compound I), in 0.05 ml or 0.1 ml of phosphate-buffered salt solution (PBS) or in 0.2 ml of a 0.05 % by weight solution of sodium carboxymethylcellulose in double-distilled water, by means of intranasal, intravenous or oral administration respectively, in the manner indicated in Table 1 .
The remainder of the above-mentioned mice, that is 20 or 30, serve as the control, that is to say they either receive no treatment or are given a placebo.
The intranasal administration of compound I is effected under light anaesthesia using a mixture of equal parts of diethyl ether, ethanol and chloroform.

[1] = test system: Herpesvirus hominis 2/Angelotti; test: Topical chemotherapy of Herpes genitalis in guinea pigs, local symptoms; details: for Animals [%] with regression of symptoms of ≥ 66% on day 7 / Animals [%] with regression of symptoms of ≥ 66% on day 10 / Animals [%] with regression of symptoms of ≥ 66% on day 12 / Animals [%] with regression of symptoms of ≥ 66% on day 14 / Symptom-free animals [%] on day 10 / Symptom-free animals [%] on day 12 / Symptom-free animals [%] on day 14 / Symptom-free animals [%] on day 21: placebo 0, untreated 0; for Symptom-free animals [%] on day 34: placebo 0, untreated 20
Source text: The number indicated in the following Table of female albino guinea pigs of the Pirbright strain (150-180 g body weight) are infected intravaginally with ~10^4 PFU (plaque-forming units) of Herpesvirus hominis 2/Angelotti, cultivated in HEL (human embryonal lungs) cells, as described in B. Lukas et. al., Arch. ges. Virusforsch. 44, 153-155 (1974) .
At the time indicated in the following Table (the time difference in days in relation to the day of infection, - [minus] indicating a time before infection) the number N of guinea pigs indicated in Table 2 are treated intravaginally with a single dose of in each case 0.1 ml of a gel containing the concentration of compound I indicated in Table 2.
The gel without active ingredient has the following composition:
2.25 % sodium carboxymethylcellulose (Hercules, USA)
made up to 100 % with bi-distilled water.
The effect of the treatment can be seen in Table 2.
The symptoms occurring in untreated animals are described in B. Lukas et al., Arch. Virol. 49, 1-11 (1975) .

vaccinal virus IHD = test: Tail lesions in mice infected intravenously with vaccinal virus IHD; details: 1 mg/kg oral; for Number of tail lesions (mean ± standard deviation) on day +7 / Number of tail lesions (mean ± standard deviation) on day +9: control 4.3 ± 1.9; for Number of tail lesions (mean ± standard deviation) on day +12: control 4.6 ± 1.8; for Number of tail lesions (mean ± standard deviation) on day +10: control 5.9 ± 1.9
Procedure: Groups of 20 female Tif:MF-2f (SPF) mice each having a body weight of 14-16 g are infected intravenously, under light anaesthesia using a mixture of equal parts of diethyl ether, ethanol and chloroform, with 2×10^3 PFU vaccinal virus IHD in the form of in each case 0.1 ml of a suspension of the virus in beef heart infusion broth.
10 of these mice from each of the above-mentioned groups are treated on the fourth or sixth day after infection, that is to say on day +4 or +6 (administration day), with a single oral administration of 1 mg/kg of compound I in 0.2 ml of a 0.05 % by weight aqueous solution of sodium carboxymethylcellulose.
The remaining 10 mice from each of the above-mentioned groups serve as the controls and receive a placebo.
On the seventh, ninth, tenth and twelfth day after infection the number of tail lesions in the mice is determined, this being carried out substantially as described by J. J. Boyle, R. F. Haff and R. C. Stewart in Antimicrobial Agents and Chemotherapy, 536-539 (1967), and it should be noted that the first tail lesions can be identified only on the sixth or seventh day.

Herpes Simplex 1/Virtue = test: Survival of mice infected intranasally with lethal dose of Herpes Simplex 1/Virtue; details: intranasal, day -7, 0.1 mg/kg single dose; control 40
[2] = test system: Influenza B/Hong Kong/5/72; test: Survival of mice infected intranasally with lethal dose of Influenza B/Hong Kong/5/72; details: intranasal, day -7, 0.1 mg/kg single dose; control 30
Encephalomyocarditis = test: Survival of mice infected intranasally with lethal dose of Encephalomyocarditis virus; details: oral, control 30
[3] = 0.1 ml gel 0.1 % intravaginal, single dose day +4, N 13
[4] = 0.1 ml gel 0.1 % intravaginal, single dose day -7, N 14
[5] = 0.1 ml gel 1.0 % intravaginal, single dose day +4, N 14
[6] = 0.1 ml gel 1.0 % intravaginal, single dose day -7, N 14
[7] = single administration on day +4
[8] = single administration on day +6

CCCCCCCCCCCCCCCC(=O)OC[C@H](COP(=O)(O)OCCNC(=O)[C@H](C)NC(=O)CC[C@@H](NC(=O)[C@H](C)NC(=O)[C@@H](C)O[C@H]1[C@H](O)[C@@H](CO)OC(O)[C@@H]1NC(C)=O)C(N)=O)OC(=O)CCCCCCCCCCCCCCC (stereo partly drawn) [compound I, N-acetylmuramyl-L-alanyl-D-isoglutaminyl-L-alanine-2-(1,2-dipalmitoyl-sn-glycero-3-hydroxyphosphoryloxy)-ethylamide]
Percentage survivors (Herpes Simplex 1/TUP): 60% | Animals [%] with regression of symptoms of ≥ 66% on day 7 [1, 3]: 62% | Animals [%] with regression of symptoms of ≥ 66% on day 10 [1, 3]: 85% | Animals [%] with regression of symptoms of ≥ 66% on day 12 [1, 3]: 100% | Animals [%] with regression of symptoms of ≥ 66% on day 14 [1, 3]: 93% | Symptom-free animals [%] on day 10 [1, 3]: 70% | Symptom-free animals [%] on day 12 [1, 3]: 77% | Symptom-free animals [%] on day 14 [1, 3]: 85% | Symptom-free animals [%] on day 21 [1, 3]: 100% | Symptom-free animals [%] on day 34 [1, 3]: 100% | Animals [%] with regression of symptoms of ≥ 66% on day 7 [1, 4]: 21% | Animals [%] with regression of symptoms of ≥ 66% on day 10 [1, 4]: 57% | Animals [%] with regression of symptoms of ≥ 66% on day 12 [1, 4]: 86% | Animals [%] with regression of symptoms of ≥ 66% on day 14 [1, 4]: 100% | Symptom-free animals [%] on day 10 [1, 4]: 43% | Symptom-free animals [%] on day 12 [1, 4]: 64% | Symptom-free animals [%] on day 14 [1, 4]: 86% | Symptom-free animals [%] on day 21 [1, 4]: 86% | Symptom-free animals [%] on day 34 [1, 4]: 100% | Animals [%] with regression of symptoms of ≥ 66% on day 7 [1, 5]: 79% | Animals [%] with regression of symptoms of ≥ 66% on day 10 [1, 5]: 79% | Animals [%] with regression of symptoms of ≥ 66% on day 12 [1, 5]: 86% | Animals [%] with regression of symptoms of ≥ 66% on day 14 [1, 5]: 93% | Symptom-free animals [%] on day 10 [1, 5]: 36% | Symptom-free animals [%] on day 12 [1, 5]: 64% | Symptom-free animals [%] on day 14 [1, 5]: 79% | Symptom-free animals [%] on day 21 [1, 5]: 86% | Symptom-free animals [%] on day 34 [1, 5]: 100% | Animals [%] with regression of symptoms of ≥ 66% on day 7 [1, 6]: 29% | Animals [%] with regression of symptoms of ≥ 66% on day 10 [1, 6]: 79% | Animals [%] with regression of symptoms of ≥ 66% on day 12 [1, 6]: 71% | Animals [%] with regression of symptoms of ≥ 66% on day 14 [1, 6]: 93% | Symptom-free animals [%] on day 10 [1, 6]: 21% | Symptom-free animals [%] on day 12 [1, 6]: 57% | Symptom-free animals [%] on day 14 [1, 6]: 86% | Symptom-free animals [%] on day 21 [1, 6]: 86% | Symptom-free animals [%] on day 34 [1, 6]: 100% | Number of tail lesions (mean ± standard deviation) on day +7 (vaccinal virus IHD; [7]): 0.9 ± 0.7 | Number of tail lesions (mean ± standard deviation) on day +9 (vaccinal virus IHD; [7]): 0.9 ± 0.9 | Number of tail lesions (mean ± standard deviation) on day +12 (vaccinal virus IHD; [7]): 0.2 ± 0.4 | Number of tail lesions (mean ± standard deviation) on day +10 (vaccinal virus IHD; [7]): 0.9 ± 1.4 | Number of tail lesions (mean ± standard deviation) on day +7 (vaccinal virus IHD; [8]): 1.1 ± 1.4 | Number of tail lesions (mean ± standard deviation) on day +9 (vaccinal virus IHD; [8]): 0.9 ± 1.6 | Number of tail lesions (mean ± standard deviation) on day +12 (vaccinal virus IHD; [8]): 0.5 ± 1.0 | Number of tail lesions (mean ± standard deviation) on day +10 (vaccinal virus IHD; [8]): 0.3 ± 0.7 | Percentage survivors (Herpes Simplex 1/Virtue): 70% | Percentage survivors [2]: 80% | Percentage survivors (Encephalomyocarditis; day +4, 1 mg/kg single dose): 90% | Percentage survivors (Encephalomyocarditis; day +4, 10 mg/kg single dose): 70% | Percentage survivors (Encephalomyocarditis; day +4, 100 mg/kg single dose): 100%
